Laboratory results: PMC7934871 (JCI Insight, 2021)

Test system: HCT116 xenograft tumors
Assay: HCT116 xenograft in NSG mice, systemic (i.v.) treatment
Type: in vivo, mouse
Procedure: (A) Growth kinetics of HCT116 tumors in NSG mice systemically treated with acet.-STAT3 peptides (1 mg/kg), with or without PS oligonucleotide conjugation, every other day (n = 5). SD is shown. Two-way ANOVA (Tukey’s multiple comparisons test) was used for analyzing the kinetics of tumor growth over the treatment period; ****P < 0.001. […] Lower 2 panels show input total STAT3 protein. […] Penetration of FAM-labeled PS-acet.-STAT3 peptide into tumors was also assessed by immunostaining followed by confocal imaging (second panel from top). The images are representative of 5 tumors per experimental group in A. Scale bars: 50 μm. Insets: original magnification, ×20. The graphs show the quantification for FAM and Ki-67 expression levels and of the mean vessel diameter (data include 5 fields of view per group). SD is shown. One-way ANOVA; ****P < 0.001; ***P < 0.005.
Mouse care and experimental procedures were performed under pathogen-free conditions in accordance with established institutional guidance and approved IACUC protocols from Research Animal Care Committee of the City of Hope. For s.c. tumor challenge, 5 × 10^6 HCT116 cells were injected into NSG mice from The Jackson Laboratory or animal resource core facility at the City of Hope. After tumors reached an average size of 80~100 mm^3, mice were locally or intravenously treated with 1 mg/kg of PO- or PS-peptides (Anaspec) every day or every other day. Control animals were treated with the equal volume of HBSS (Invitrogen, Thermo Fisher Scientific). Tumor growth was measured by a digital caliper every other day. To study the effects of the modified peptides at protein and gene levels, mice were euthanized 4–6 weeks after tumor injection. B16 melanoma lung metastasis was performed by injecting 0.5 × 10^6 B16 cells into bloodstream of C57BL/6 mice (The Jackson Laboratory). One day after tumor challenge, mice were treated intravenously (retro-orbitally) with 1 mg/kg of PO- or PS-acet.-STAT3, PS-unacet.-STAT3, or PS-STAT3-K685R peptides every other day until the endpoint as indicated. Control mice were treated with HBSS. Lungs were excised from the mice, and B16 nodules were visualized by gp100 staining. Lungs were then analyzed for immune responses by immunostaining followed by confocal imaging. For mouse PDAC model, 5 × 10^6 KPC mouse cells were mixed with Matrigel and subcutaneously injected into C57BL/6 mice (The Jackson Laboratory). […] Control animals were treated with the equal volume of HBSS (Invitrogen, Thermo Fisher Scientific). Tumor growth was measured by a digital caliper every other day. To study the effects of the modified peptides at protein and gene levels, mice were euthanized at the endpoint as indicated.

PDIPKEEAFGK685(Ac)YCRPESQEHPC-linker-T*C*C*A*T*G*A*G*C*T*T*C*C*T*G*A*T*G*C*T [PS-acet.-STAT3 peptide]
tumor growth (HCT116 s.c. in NSG mice, 1 mg/kg i.v. every other day, n = 5): significantly reduced | STAT3 activation in tumor xenografts (HCT116 tumor tissues, immunoprecipitation and Western blotting): downregulated | cell death in tumor sections (H&E staining) (HCT116 xenograft): massive cell death | cell proliferation marker Ki-67 and tumor angiogenesis marker CD31 in tumor tissues (HCT116 xenograft, IF and confocal): significant reduction | proapoptotic genes (TP53, CASP9) in tumor tissues (HCT116 xenograft, qRT-PCR): significantly upregulated | expression of STAT3 target genes MMP-9 (MMP9) and BCL-XL (BCL2L1) in tumors (HCT116 xenograft, qRT-PCR and Western blotting): significantly reduced
